# Data from PMC11999280, “Design and screening of novel endosomal escape compounds that enhance functional delivery of oligonucleotides in vitro” (Molecular Therapy. Nucleic Acids, 2025).
# What was measured:
# Type in all cases: cell-based
# [1] = test system: mCherry-GAL9 expressing 16HBE cells; experiment: GAL9 recruitment assay, 16HBE; settings: calculated mean from >3 independent exp.
# How it was run: (§1)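 Readout is GAL9 relocalization to damaged endosomes, scored as mCherry-GAL9 structures counted in confocal images after fixation in 4% paraformaldehyde and Hoechst 33342 nuclear staining. Compounds were applied in dose-response to stably expressing cells seeded one day earlier; three independent experiments with duplicate wells.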
# [2] = test system: mCherry-GAL9 expressing HeLa cells; experiment: GAL9 recruitment assay, HeLa; settings: calculated mean from >3 independent exp.
# How it was run: as §1
# [3] = test system: HeLa_Luc705 cells (pLuc/705 splice-switching reporter); experiment: Functional 705-SSO delivery, luciferase splice-switching assay; settings: HeLa-Luc705 + 2 µM SSO; EEE 2.5 - 3 µM; mean from >3 independent experiments
# How it was run: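 Cells seeded at 10,000/well were pre-incubated 24 h with 1–2 μM 2′-O-methyl phosphorothioate 705-SSO, then exposed to endosomal escape enhancer at the stated concentrations. After 24 h, cells were lysed in 0.1% Triton X-100 and firefly luciferase luminescence was read as the splice-correction signal. LF2000 lipofection with 100–200 nM SSO served as transfection control.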
# [4] = test system: mCherry-GAL9 expressing HepG2 cells; experiment: GAL9 recruitment assay, HepG2; settings: calculated mean from >3 independent exp.
# How it was run: as §1
# [5] = test system: mCherry-GAL9 expressing HEK293 cells; experiment: GAL9 recruitment assay, HEK293; settings: calculated mean from >3 independent exp.
# How it was run: as §1
# [6] = test system: mCherry-GAL9 expressing HuH7 cells; experiment: GAL9 recruitment assay, HuH7; settings: calculated mean from >3 independent exp.
# How it was run: as §1
# [7] = test system: mCherry-GAL9 expressing SHSY5Y cells; experiment: GAL9 recruitment assay, SHSY5Y; settings: calculated mean from >3 independent exp.
# How it was run: as §1
# [8] = test system: mCherry-GAL9 expressing U2OS cells; experiment: GAL9 recruitment assay, U2OS; settings: calculated mean from >3 independent exp.
# How it was run: as §1
# [9] = test system: mCherry-GAL9 expressing NCI-H358 cells; experiment: GAL9 recruitment assay, NCI-H358; settings: calculated mean from >3 independent exp.
# How it was run: as §1
smiles,measurement,setting,value
CCN1CCC(n2cc(Nc3ncc(F)c(-n4ccc5c(C#N)cccc54)n3)c(OC)n2)CC1 [EEE11],Gal9 response compared to reference,[1]; EEE 0.31 µM,0.013
same,Gal9 response compared to reference,[1]; EEE 0.62 µM,0.013
same,Gal9 response compared to reference,[1]; EEE 1.25 µM,0.056
same,Gal9 response compared to reference,[1]; EEE 2.5 µM,0.167
same,Gal9 response compared to reference,[1]; EEE 5 µM,0.507
same,Gal9 response compared to reference,[1]; EEE 10 µM,0.623
same,Gal9 response compared to reference,[2]; EEE 0.31 µM,0.005
same,Gal9 response compared to reference,[2]; EEE 0.62 µM,0.004
same,Gal9 response compared to reference,[2]; EEE 1.25 µM,0.013
same,Gal9 response compared to reference,[2]; EEE 2.5 µM,0.253
same,Gal9 response compared to reference,[2]; EEE 5 µM,0.553
same,Gal9 response compared to reference,[2]; EEE 10 µM,0.370
same,Luciferase expression compared to reference,[3],2.093
same,Gal9 response compared to reference,[4]; EEE 0.31 µM,0.009
same,Gal9 response compared to reference,[4]; EEE 0.62 µM,0.008
same,Gal9 response compared to reference,[4]; EEE 1.25 µM,0.007
same,Gal9 response compared to reference,[4]; EEE 2.5 µM,0.019
same,Gal9 response compared to reference,[4]; EEE 5 µM,0.163
same,Gal9 response compared to reference,[4]; EEE 10 µM,0.568
same,Gal9 response compared to reference,[5]; EEE 0.31 µM,0.027
same,Gal9 response compared to reference,[5]; EEE 0.62 µM,0.022
same,Gal9 response compared to reference,[5]; EEE 1.25 µM,0.106
same,Gal9 response compared to reference,[5]; EEE 2.5 µM,0.438
same,Gal9 response compared to reference,[5]; EEE 5 µM,0.779
same,Gal9 response compared to reference,[5]; EEE 10 µM,0.493
same,Gal9 response compared to reference,[6]; EEE 0.31 µM,0.009
same,Gal9 response compared to reference,[6]; EEE 0.62 µM,0.008
same,Gal9 response compared to reference,[6]; EEE 1.25 µM,0.023
same,Gal9 response compared to reference,[6]; EEE 2.5 µM,0.154
same,Gal9 response compared to reference,[6]; EEE 5 µM,0.258
same,Gal9 response compared to reference,[6]; EEE 10 µM,0.222
same,Gal9 response compared to reference,[7]; EEE 0.31 µM,0.014
same,Gal9 response compared to reference,[7]; EEE 0.62 µM,0.018
same,Gal9 response compared to reference,[7]; EEE 1.25 µM,0.385
same,Gal9 response compared to reference,[7]; EEE 2.5 µM,0.801
same,Gal9 response compared to reference,[7]; EEE 5 µM,0.691
same,Gal9 response compared to reference,[7]; EEE 10 µM,0.469
same,Gal9 response compared to reference,[8]; EEE 0.31 µM,0.012
same,Gal9 response compared to reference,[8]; EEE 0.62 µM,0.015
same,Gal9 response compared to reference,[8]; EEE 1.25 µM,0.018
same,Gal9 response compared to reference,[8]; EEE 2.5 µM,0.048
same,Gal9 response compared to reference,[8]; EEE 5 µM,0.317
same,Gal9 response compared to reference,[8]; EEE 10 µM,0.483
same,Gal9 response compared to reference,[9]; EEE 0.31 µM,0.016
same,Gal9 response compared to reference,[9]; EEE 0.62 µM,0.020
same,Gal9 response compared to reference,[9]; EEE 1.25 µM,0.036
same,Gal9 response compared to reference,[9]; EEE 2.5 µM,0.143
same,Gal9 response compared to reference,[9]; EEE 5 µM,0.614
same,Gal9 response compared to reference,[9]; EEE 10 µM,0.576
